{
  "source": "patent EP4529915A1",
  "about": "“LIPOSOMAL PREPARATIONS FOR USE IN TREATING CANCER” (DG-Nika AG, priority 2023, dated 2025)",
  "key": {"[1]": {"test": "Dissolution of lomustine in aqueous cyclodextrin solution (solubility)", "assay_type": "physicochemical", "source_text": "However, they made an unexpected discovery that a methyl-β-CD (methyl-β-cyclodextrin) solution was able to dissolve lomustine crystals to the aqueous phase within a few seconds. They determined that the mechanism of this process is mostly related to co-dissolution rather than the formation of an inclusion complex as is often the case. In this respect, the formation of an inclusion complex usually takes from a few to several hours and requires constant mixing, heating and the use of a co-solvent such as ethanol or methanol.\nThe present invention provides a method of preparing a liposomal form of lomustine by (i) producing its aqueous solution of high concentration and (ii) then encapsulating it in the aqueous space of liposomes. Thanks to the use of selected cyclodextrins it is possible to obtain a high concentration of lomustine in water of ~20 mg / ml. The normal concentration of lomustine is not more than 0.11 mg/ml when no additives are used. This method makes it possible to encapsulate lomustine in the water space of liposomes in the form of its solution in water or/and inclusion complex with cyclodextrins, or to obtain the effect of co-dissolving lomustine and cyclodextrin in an aqueous solution. The main advantage of this solution is to limit the crystallization and escape of the drug from the liposomes by transferring it to an aqueous solution using not organic solvents such as ethanol, but various organic substances that can be administered intravenously without harming the patient and not damaging the liposomes as is the case with high concentrations of ethanol needed to obtain a high concentration of lomustine in water.\nFor this reason, they were looking for a way to effectively encapsulate the drug in the aqueous space of liposomes as a real solution. While searching for substances that could potentially enable the transfer of lomustine from its crystals to the aqueous phase, inventors unexpectedly discovered that a methyl-β-CD solution dissolved lomustine within a few seconds. […]"}, "[2]": {"settings": "in water, no additives used; cited from earlier work"}, "[3]": {"settings": "cited from earlier work"}},
  "note": "Where two headings read alike, the source gives them in different places.",
  "data": [
    {"molecule": "O=NN(CCCl)C(=O)NC1CCCCC1", "note": "[lomustine]", "values": [
      {"measurement": "concentration of lomustine in solution", "setting": "[1]; 25% methyl-β-CD solution, room temperature (R.T.)", "value": "at least 20 mg/ml"},
      {"measurement": "time for dissolution of lomustine crystals to the aqueous phase", "setting": "[1]; methyl-β-CD solution, room temperature", "value": "a few seconds"},
      {"measurement": "concentration of lomustine in water", "setting": "[1]; with selected cyclodextrins", "value": "~ 20 mg / ml"},
      {"measurement": "normal concentration of lomustine", "setting": "[2]", "value": "not more than 0.11 mg/ml"},
      {"measurement": "metabolites remaining in the body", "setting": "[3]; 5 days after administration", "value": "15-20%"},
      {"measurement": "time until active metabolites appear in substantial concentrations in CSF", "setting": "[3]; after oral administration", "value": "≤ 30", "unit": "min"},
      {"measurement": "concentration of metabolites in the cerebrospinal fluid relative to plasma", "setting": "[3]; in vivo", "value": 150, "unit": "%"},
      {"measurement": "cyclohexyl moiety of lomustine bound to plasma proteins", "setting": "[3]; in vivo", "value": "About 600"},
      {"measurement": "second phase plasma half-life", "setting": "[3]; in vivo", "value": "24 to 48", "unit": "h"},
      {"measurement": "detection of lomustine in cerebral spinal fluid (CSF)", "setting": "[3]; oral, parent drug", "value": "not detectable"},
      {"measurement": "bioavailability", "setting": "[3]; orally administered", "value": "very low"},
      {"measurement": "biotransformation half-life", "setting": "[3]; throughout the body", "value": "less than 1 hour"},
      {"measurement": "dose of the drug excreted as metabolites in the urine", "setting": "[3]; within 24 hours", "value": "about half"},
      {"measurement": "dose of the drug excreted as metabolites in the urine", "setting": "[3]; within 4 days", "value": "less than 75%"}
    ]}
  ]
}
